Columns and labels:
[1] = system: anesthetized dog; assay: Intact anesthetized dog preparation (in situ), cardiac contractility; type: in vivo; details: intravenous
Experimental: (§1) By way of examples, pharmacological test procedures are described below. • (1) An isolated and cross-circulated papillary muscle preparation of the dog An isolated and cross-circulated papillary muscle preparation of the dog was prepared according to the method of Endo and Hashimoto [see American J. Physiol., 218, 1459-1463, (1970) U. S. A.]. A test compound dissolved in a solvent was applied by proximal intraarterial injection and its effect on contractility of the papillary muscle was determined. The results are shown in Table 1. • (2) Isolated left atrium of the guinea pig Male guinea pigs weighing 200 - 300 g were stunned by a blow on the head and the hearts were quickly excised and placed in a Petri dish containing oxygenated Krebs-Hensleit solution. The left atrium was excised. A fine cotton suture was attached to the left atrial appendage. The tissue was mounted in a 30 ml organ bath filled with Krebs-Hensleit solution at 37°C and oxygenated with 95% 02 - 5% C02 mixture. The cotton thread was then attached to a force- displacement transducer connected to a polygraph. A silver wire electrode connected to a stimulator was placed at the bottom of the preparaticn. Resting tension applied was 0.5 g. The preparation was driven electrically by a stimulator at a rate of 120/min. with suprathreshold rectangular pulses of 1 msec duration. The preparation was left to equilibrate for 1 hour. The test compounds dissolved in vehicle were added to the organ bath and the response was recorded. The results are shown in Table 1. • (3) Intact anesthetized dog preparation Mongrel dogs of either sex weighing 8 - 13 kg were anesthetized with sodium pentobarbital (30 mg/kg i.v.). A tracheal cannula was inserted and artificial respiration was carried out by means of a Harvard respiration. The left femoral vein was cannulated for intravenous bolus injection of the test compounds. The chest was opened at the left 4th intercostal space, the heart was exposed, and a _Walton-Brodie type strain gauge was sutured to the wall of the right ventricle to measure myocadial contractile force. A polyethylene cannula connected to a transducer was introduced into the left ventricle through the ventricular wall and left ventricular pressure was measured. Peak positive rate of rise of left ventricular pressure (dP/dt max) was obtained by an electric differentiator. The test compounds were dissolved in appropriate vehicle and intravenously administered.

[2] = system: left atrium of the guinea pig; assay: Isolated, electrically driven left atrium of the guinea pig (contractility)
Experimental: as §1

[3] = system: papillary muscle preparation of the dog; assay: Isolated and cross-circulated papillary muscle preparation of the dog (contractility); details: Canis lupus familiaris, read-out: Developed tension (% Increase); for activation at 0.03 mg: Dose 30 µg i.a.; for activation at 0.1 mg: Dose 100 µg i.a.
Experimental: as §1

[4] = Acute toxicity, LD50 by the Litchfield-Wilcoxon method; details: in vivo
Experimental: The values for LD50 were determined by the Litchfield-Wilcoxon method [J. T. Litchfield and F. Wilcoxon, J. Pharmacol. exp. Therap., 96, 99 (1949)].

Compound | Contractile force of right ventricle (% Increase) ([1]; Dose 0.3 mg/kg) | dP/dt max. (% Increase) ([1]; Dose 0.3 mg/kg) | Contractile force of right ventricle (% Increase) ([1]; Dose 1 mg/kg) | dP/dt max. (% Increase) ([1]; Dose 1 mg/kg) | Developed tension (% Increase) ([2]; Concentration 3 x 10^-5 g/ml) | Developed tension (% Increase) ([2]; Concentration 10^-5 g/ml) | activation at 0.03 mg [3] [%] | activation at 0.1 mg [3] [%] | Contractile force of right ventricle (% Increase) ([1]; Dose 0.03 mg/kg) | dP/dt max. (% Increase) ([1]; Dose 0.03 mg/kg) | Contractile force of right ventricle (% Increase) ([1]; Dose 0.1 mg/kg) | dP/dt max. (% Increase) ([1]; Dose 0.1 mg/kg) | Developed tension (% Increase) ([2]; Concentration 3 x 10^-6 g/ml) | Developed tension (% Increase) ([2]; Concentration 10^-6 g/ml) | activation at 0.01 mg ([3]; Dose 10 µg i.a.) [%] | LD50 ([4]; iv) [mg/kg] | LD50 ([4]; po) [mg/kg] | activation at 0.3 mg ([3]; Dose 300 µg i.a.) [%]
CCNC(=S)Nc1ccc(C2=NNC(=O)CC2)cc1 [Example 4, 4,5-dihydro-6-(4-N-ethylthioureidophenyl)-3-(2H)-pyridazinone] | 75.8 | 49.9 | 116.2 | 79.5 | 102 | 85.6 | 8.4 | 11.5 |  |  |  |  |  |  |  |  |  | 
NC(=S)Nc1ccc(C2=NNC(=O)CC2)cc1 [Example 1, 4,5-dihydro-6-(4-thioureidophenyl)-3-(2H)-pyridazinone] |  |  |  |  | 44.9 | 24.6 | 9.5 | 21.2 |  |  |  |  |  |  |  |  |  | 
CNC(=S)Nc1ccc(C2=NNC(=O)CC2)cc1 [Example 2, 4,5-dihydro-6-(4-N-methylthioureidophenyl)-3-(2H)-pyridazinone] |  |  |  |  |  |  | 47.4 |  | 65.1 | 28.4 | 74.8 | 95.4 | 32.1 | 28.9 | 8.8 | > 100 | > 2200 | 
CNC(=S)Nc1ccc(-c2ccc(=O)[nH]n2)cc1 [Example 3, 6-(4-N-methylthioureidophenyl)-3-(2H)-pyridazinone] |  |  |  |  | 34.0 | 28.3 |  | 8.1 |  |  |  |  |  |  |  |  |  | 15.9

— EP0085985A1, “Pyridazinone derivatives, pharmaceutically acceptable salts thereof and pharmaceutical compositions comprising said compounds” (MITSUBISHI KASEI CORPORATION, priority 1982, dated 1983)
